Assay results: PubChem BioAssay (NCI)
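Interpolation was linear, between the two tested concentrations surrounding the appropriate level; five concentrations were tested over 48 hours in 96-well plates. TGI denotes the concentration required for complete inhibition of growth.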

Key:
Experiment in all cases: NCI tumour cell line growth inhibition, 48 h
[1] = test system: OVCAR-3 ovarian
[2] = test system: HT29 colon
[3] = test system: KM12 colon
[4] = test system: SK-OV-3 ovarian
[5] = test system: SNB-19 CNS
[6] = test system: DLD-1 colon
[7] = test system: DMS 273 small cell lung
[8] = test system: NCI-H23 lung
[9] = test system: CCRF-CEM leukemia
[10] = test system: SW-620 colon
[11] = test system: SK-MEL-2 melanoma
[12] = test system: OVCAR-8 ovarian
[13] = test system: COLO 205 colon
[14] = test system: RXF-631 renal
[15] = test system: UACC-62 melanoma
[16] = test system: U251 CNS
[17] = test system: LXFL 529 NSCLC
[18] = test system: MALME-3M melanoma
[19] = test system: IGROV1 ovarian
[20] = test system: OVCAR-4 ovarian
[21] = test system: SK-MEL-5 melanoma
[22] = test system: TK-10 renal
[23] = test system: CAKI-1 renal
[24] = test system: M19-MEL melanoma
[25] = test system: KM20L2 colon
[26] = test system: XF 498 CNS
[27] = test system: OVCAR-5 ovarian
[28] = test system: MOLT-4 leukemia
[29] = test system: NCI-H522 lung
[30] = test system: HCT-15 colon
[31] = test system: SK-MEL-28 melanoma
[32] = test system: K-562 leukemia
[33] = test system: RXF 393 renal
[34] = test system: SNB-78 CNS
[35] = test system: UO-31 renal
[36] = test system: M14 melanoma
[37] = test system: SR leukemia
[38] = test system: HCC-2998 colon
[39] = test system: SN12C renal
[40] = test system: HOP-92 NSCLC
[41] = test system: SF-295 CNS
[42] = test system: RPMI-8226 leukemia
[43] = test system: UACC-257 melanoma
[44] = test system: SF-539 CNS
[45] = test system: SF-268 CNS
[46] = test system: DMS 114 small cell lung
[47] = test system: EKVX NSCLC
[48] = test system: ACHN renal
[49] = test system: NCI-H460 lung
[50] = test system: A498 renal
[51] = test system: SNB-75 CNS
[52] = test system: 786-0 renal
[53] = test system: HOP-62 NSCLC
[54] = test system: A549 NSCLC
[55] = test system: NCI-H226 lung
[56] = test system: HOP-18 NSCLC
[57] = test system: HL-60(TB) leukemia
[58] = test system: LOX IMVI melanoma
[59] = test system: HCT-116 colon

## O=C(N/C(=C\c1ccccc1[N+](=O)[O-])c1nc2ccccc2[nH]1)c1ccccc1
[1]
  TGI: > 100 µM
[2]
  TGI: > 100 µM
[3]
  TGI: > 100 µM
[4]
  TGI: > 100 µM
[5]
  TGI: > 100 µM
[6]
  TGI: > 100 µM
[7]
  TGI: > 100 µM
[8]
  TGI: > 100 µM
[9]
  TGI: > 100 µM
[10]
  TGI: > 100 µM
[11]
  TGI: > 100 µM
[12]
  TGI: > 100 µM
[13]
  TGI: > 100 µM
[14]
  TGI: > 100 µM
[15]
  TGI: > 100 µM
[16]
  TGI: > 100 µM
[17]
  TGI: > 100 µM
[18]
  TGI: > 100 µM
[19]
  TGI: > 100 µM
[20]
  TGI: > 100 µM
[21]
  TGI: > 100 µM
[22]
  TGI: > 100 µM
[23]
  TGI: > 100 µM
[24]
  TGI: > 100 µM
[25]
  TGI: > 100 µM
[26]
  TGI: > 100 µM
[27]
  TGI: > 100 µM
[28]
  TGI: > 100 µM
[29]
  TGI: > 100 µM
[30]
  TGI: > 100 µM
[31]
  TGI: > 100 µM
[32]
  TGI: > 100 µM
[33]
  TGI: > 100 µM
[34]
  TGI: > 100 µM
[35]
  TGI: > 100 µM
[36]
  TGI: > 100 µM
[37]
  TGI: > 100 µM
[38]
  TGI: > 100 µM
[39]
  TGI: > 100 µM
[40]
  TGI: > 100 µM
[41]
  TGI: > 100 µM

## Cc1ccc(C2CC(c3ccc([N+](=O)[O-])cc3)=Nc3ccccc3S2)cc1 (stereo not drawn)
[1]
  TGI: 99.7 µM
[42]
  TGI: 44.9 µM
[43]
  TGI: > 100 µM
[2]
  TGI: 95.5 µM
[3]
  TGI: 75.2 µM
[4]
  TGI: > 100 µM
[44]
  TGI: 71.9 µM
[45]
  TGI: > 100 µM
[46]
  TGI: 59 µM
[5]
  TGI: > 100 µM
[6]
  TGI: 85.5 µM
[47]
  TGI: > 100 µM
[8]
  TGI: 77.4 µM
[9]
  TGI: 34.2 µM
[10]
  TGI: 46.6 µM
[11]
  TGI: 95 µM
[12]
  TGI: 72.3 µM
[13]
  TGI: > 100 µM
[14]
  TGI: > 100 µM
[48]
  TGI: > 100 µM
[15]
  TGI: > 100 µM
[17]
  TGI: 37.5 µM
[49]
  TGI: > 100 µM
[18]
  TGI: > 100 µM
[19]
  TGI: 87.5 µM
[20]
  TGI: > 100 µM
[50]
  TGI: 77.1 µM
[21]
  TGI: 38 µM
[51]
  TGI: 82 µM
[22]
  TGI: > 100 µM
[23]
  TGI: > 100 µM
[24]
  TGI: 45 µM
[25]
  TGI: 96.7 µM
[52]
  TGI: 28 µM
[53]
  TGI: > 100 µM
[26]
  TGI: 55.7 µM
[54]
  TGI: > 100 µM
[55]
  TGI: > 100 µM
[56]
  TGI: > 100 µM
[27]
  TGI: > 100 µM
[28]
  TGI: 69 µM
[29]
  TGI: 73.3 µM
[30]
  TGI: 46.2 µM
[31]
  TGI: 94.3 µM
[32]
  TGI: 41.5 µM
[33]
  TGI: 38.9 µM
[57]
  TGI: 43.4 µM
[35]
  TGI: > 100 µM
[36]
  TGI: > 100 µM
[58]
  TGI: 34.6 µM
[38]
  TGI: 40.3 µM
[39]
  TGI: > 100 µM
[41]
  TGI: > 100 µM

## O=C(Cc1nc2ccccc2c(=O)n1-c1c(Cl)cccc1Cl)c1ccncc1
[1]
  TGI: 77.8 µM
[43]
  TGI: 54.3 µM
[2]
  TGI: 45.8 µM
[3]
  TGI: 32.3 µM
[4]
  TGI: > 100 µM
[44]
  TGI: 34.5 µM
[45]
  TGI: > 100 µM
[46]
  TGI: 78.6 µM
[5]
  TGI: > 100 µM
[6]
  TGI: > 100 µM
[7]
  TGI: 40.6 µM
[47]
  TGI: > 100 µM
[8]
  TGI: > 100 µM
[9]
  TGI: 45.2 µM
[10]
  TGI: > 100 µM
[11]
  TGI: 46.3 µM
[12]
  TGI: > 100 µM
[13]
  TGI: 33.6 µM
[14]
  TGI: 63.3 µM
[48]
  TGI: 42.4 µM
[15]
  TGI: 56.6 µM
[16]
  TGI: > 100 µM
[17]
  TGI: > 100 µM
[49]
  TGI: 52.2 µM
[18]
  TGI: 56.2 µM
[19]
  TGI: 49.7 µM
[20]
  TGI: 80.7 µM
[50]
  TGI: 72.3 µM
[21]
  TGI: 29.4 µM
[51]
  TGI: 68.2 µM
[22]
  TGI: > 10 µM
[23]
  TGI: 86.1 µM
[24]
  TGI: 39.6 µM
[25]
  TGI: 85.9 µM
[52]
  TGI: 88.9 µM
[53]
  TGI: 47.9 µM
[54]
  TGI: 46.9 µM
[55]
  TGI: > 10 µM
[56]
  TGI: 93.1 µM
[28]
  TGI: 42.2 µM
[29]
  TGI: 49.5 µM
[30]
  TGI: > 100 µM
[31]
  TGI: 43.6 µM
[32]
  TGI: > 100 µM
[33]
  TGI: 65.7 µM
[34]
  TGI: > 100 µM
[59]
  TGI: 39.7 µM
[57]
  TGI: 30.6 µM
[35]
  TGI: 55 µM
[36]
  TGI: > 100 µM
[58]
  TGI: > 10 µM
[37]
  TGI: 39.8 µM
[38]
  TGI: 44.2 µM
[39]
  TGI: > 100 µM
[40]
  TGI: 69.8 µM
[41]
  TGI: 36.5 µM

## CCCCSN1C(=O)c2ccccc2C1=S
[1]
  TGI: > 100 µM
[42]
  TGI: 49.4 µM
[43]
  TGI: > 100 µM
[2]
  TGI: > 100 µM
[3]
  TGI: > 100 µM
[4]
  TGI: > 100 µM
[44]
  TGI: > 100 µM
[45]
  TGI: > 100 µM
[46]
  TGI: > 100 µM
[5]
  TGI: > 100 µM
[6]
  TGI: > 100 µM
[7]
  TGI: > 100 µM
[47]
  TGI: > 100 µM
[8]
  TGI: > 100 µM
[9]
  TGI: 53 µM
[10]
  TGI: > 100 µM
[11]
  TGI: > 100 µM
[12]
  TGI: > 100 µM
[13]
  TGI: > 100 µM
[14]
  TGI: > 100 µM
[48]
  TGI: > 100 µM
[15]
  TGI: > 100 µM
[16]
  TGI: > 100 µM
[49]
  TGI: > 100 µM
[18]
  TGI: > 100 µM
[19]
  TGI: > 100 µM
[20]
  TGI: > 100 µM
[50]
  TGI: > 100 µM
[21]
  TGI: > 100 µM
[51]
  TGI: > 100 µM
[22]
  TGI: > 100 µM
[23]
  TGI: > 100 µM
[24]
  TGI: > 100 µM
[52]
  TGI: > 100 µM
[53]
  TGI: > 100 µM
[26]
  TGI: > 100 µM
[54]
  TGI: > 100 µM
[27]
  TGI: > 100 µM
[28]
  TGI: 50.3 µM
[30]
  TGI: > 100 µM
[31]
  TGI: > 100 µM
[32]
  TGI: 69.5 µM
[33]
  TGI: > 100 µM
[34]
  TGI: > 100 µM
[59]
  TGI: > 100 µM
[57]
  TGI: 51.2 µM
[35]
  TGI: > 100 µM
[36]
  TGI: > 100 µM
[58]
  TGI: > 100 µM
[38]
  TGI: > 100 µM
[39]
  TGI: > 100 µM
[40]
  TGI: > 100 µM
[41]
  TGI: > 100 µM
